Reference: patent EP0117429A1, “Phosphorous containing compounds as inhibitors of enkephalinases” (SCHERING CORPORATION, priority 1983, dated 1984)
Where a name gives a salt, the structure may show the parent alone.

Experiments:
[1] = molecular target: T1, enkephalinase A (Rattus norvegicus, UniProt P07861); test: Enkephalinase A inhibition, radiometric assay with 3H-Met5-ENK substrate and TLC separation; type: biochemical, Sprague-Dawley rats; details: enkephalinase A fraction from rat brain membranes; substrate 3H-Met5-ENK 40 nM; 90 minutes at 37°C; pH 7.4
T1 construct: from tissue; host or cells: rat brain (minus cerebellum), Triton X-100 solubilised membranes, DEAE Sephacel fraction
T1 sequence (P07861 1-750): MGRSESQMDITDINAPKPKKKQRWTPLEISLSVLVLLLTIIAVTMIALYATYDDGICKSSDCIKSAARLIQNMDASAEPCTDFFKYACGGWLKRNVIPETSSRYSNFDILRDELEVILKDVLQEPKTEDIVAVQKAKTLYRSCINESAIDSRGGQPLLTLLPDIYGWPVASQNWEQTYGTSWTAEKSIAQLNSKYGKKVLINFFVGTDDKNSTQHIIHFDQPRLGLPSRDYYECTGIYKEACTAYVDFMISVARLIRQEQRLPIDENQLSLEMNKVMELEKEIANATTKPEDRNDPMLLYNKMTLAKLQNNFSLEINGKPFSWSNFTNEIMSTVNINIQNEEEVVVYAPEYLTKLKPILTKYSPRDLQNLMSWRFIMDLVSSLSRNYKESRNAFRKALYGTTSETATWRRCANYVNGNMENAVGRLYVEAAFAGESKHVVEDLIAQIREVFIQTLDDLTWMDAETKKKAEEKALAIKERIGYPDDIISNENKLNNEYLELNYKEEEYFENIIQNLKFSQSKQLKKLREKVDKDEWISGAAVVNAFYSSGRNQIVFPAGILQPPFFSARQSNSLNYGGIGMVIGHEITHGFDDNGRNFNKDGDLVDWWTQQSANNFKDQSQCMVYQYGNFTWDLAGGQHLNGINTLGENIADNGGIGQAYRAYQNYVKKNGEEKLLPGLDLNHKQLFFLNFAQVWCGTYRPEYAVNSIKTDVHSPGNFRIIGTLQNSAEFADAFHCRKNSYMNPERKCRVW
Procedure: Enzyme activity was separated by taking the brain tissue (minus cerebellum) from Sprague-Dawley rats and homogenizing it in 30 volumes of 50 mM Tris buffer, pH 7.4, using a Brinkmann Polytron. The resulting homogenate is centrifuged at 50,000 x g for 15 minutes. The pellet, constituting the membrane bound enzyme material, was washed by resuspending it in Tris and re- centrifuging it 4 times.
Following washing, solubilization of the membrane pellet was achieved by incubating it for 45 minutes at 37 °C in the presence of 15 volumes (based on initial brain weight) of 50 mM Tris-l% Triton X-100 buffer, pH 7.4. After centrifugation at 100,000 x g for 60 minutes to remove non-solubilized material, the Triton soluble supernatant was layered on a 1.5 x 30 cm DEAE Sephacel column previously equilibrated with.50 mM Tris-0.1% Triton, pH 7.4. Material was eluted from the column using a 1 liter linear NaCl gradient running from 0.0 to 0.4 M. Effluent was collected in 7 ml fractions, each of which was assayed for enkephalin degrading activity.
Enkephalin degrading activity was monitored using a radiometric assay. The substrate was ^3H-Met5-ENK (50.1 Ci/mmol, New England Nuclear) diluted in 0.05 M Tris buffer, pH 7.4, such that the final reaction mixture concentration was 40 nM. Total reaction mixture volume including enzyme and substrate was 250 µl. Incubation was carried out for 90 minutes at 37°C. To stop the reaction, tubes were transferred to a boiling water bath for 15 minutes.
Assay products were separated form one another using thin layer chromatography. […] Total running time was approximately 17 hours. TLC tanks are gassed with nitrogen prior to starting the run. Following the run, markers are visualized with ninhydrin spray. These spots, along with remaining plate regions, are cut from the plate and the radioactivity corresponding to each monitored using liquid scintillation counting. IC50's are determined using linear regression techniques.

[2] = tested on: Male CF1 mice; test: Potentiation of the analgesic effects of DAEAM, mouse tailflick test; type: in vivo; details: dose at which half the test animals displayed analgesia, DAEAM icv, tailflick latency 30 minutes after DAEAM, cut-off 10 seconds
Procedure: The following test procedure was utilized to assess the noted compounds' potentiation of the analgesic effects of (D-Ala^2-Met^5)-enkephalinamide (DAEAM).
Male CF1 mice (19-23 g) from Charles River Breeding Labs, Mass., were used (N=10/dose or dose combination). […] Tailflick latencies were re-determined 30 minutes later, as this has previously been determined to be the time of peak analgesia for DAEAM, and a cut-off of 10 seconds is employed.

IC50 [1]	Molecule	Oral ED50, in mice [2]
2200 nM	CCOC(=O)CCNC(=O)C(Cc1ccc(C(F)(F)F)cc1)CP(=O)(O)O (racemic) [R,S, -CF3, -CONH-, -(CH2)2-, -OC2H5]	–
100 nM	CC(OC(=O)NC(Cc1ccccc1)CP(=O)(O)O)C(=O)O [R,S, -H, -NHCOO-, -C^**H(CH3)-, -OH, 2-[2-phenyl-l-(phosphonomethyl)ethyl]aminocarbonyloxy-propanoic acid]	–
60 nM	CCOC(=O)CCNC(=O)[C@H](Cc1ccccc1)CP(=O)(O)O [S, -H, -CONH-, -(CH2)2-, -OC2H5, N-[(S)=1-Oxo-3-phenyl-2-(phostphonomethyl)propyl] -β-alanine ethyl ester calcium salt]	2.5 mg/kg
60 nM	O=C(O)CCNC(=O)C(Cc1ccc(C(F)(F)F)cc1)CP(=O)(O)O (racemic) [R,S, -CF3, -CONH-, -(CH2)2-, -OH, N-[1-Oxo-2-phosphonomethyl-3-(4-trifluoromethyl)phenylpropyl]-β-alanine]	–
80 nM	O=C(O)CCCNC(=O)C(Cc1ccccc1)CP(=O)(O)O (centres unmarked) [S, -H, -CONH-, -(CH2)3-, -OH, 4-[1-oxo-3-phenyl-2-(phosphonomethyl)propyl]amino-butanoic acid]	–
63 nM	CCOC(=O)c1ccc(NC(=O)C(Cc2ccccc2)CP(=O)(O)O)cc1 (centres unmarked) [S, -H, -CONH-, p-C6H4-, -OC2H5, 4-[1-oxo-3-phenyl-2-(phosphonomethyl)propyl]aminobenzoic acid ethyl ester]	–
210 nM	O=C(CCNC(=O)[C@H](Cc1ccccc1)CP(=O)(O)O)OCCOc1ccccc1 [S, -H, -CONH-, -(CH2)2-, -O(CH2)2OC6H5, N-[(S)-1-Oxo-3-phenyl-2-(phosphonomethyl)propyl)-β-alanine 2-phenoxyethyl ester]	–
25 nM	O=C(O)C(O)CNC(=O)C(Cc1ccccc1)CP(=O)(O)O (centres unmarked) [S, -H, -CONH-, -CH2C^***H(OH)-, -OH, 3-[1-Oxo-3-phenyl-2-(phosphonomethyl)propyl]amino-2-hydroxypropanoic Acid]	–
11 nM	O=C(O)CCNC(=O)[C@H](Cc1ccc(Cl)cc1)CP(=O)(O)O [S, -Cl, -CONH-, -(CH2)2-, -OH, N-[3-(a-chloro)phenyl-1-oxo-2-(phosphonomethyl)propyl]-B-alanine]	25 mg/kg
600 nM	O=C(O)CCNC(=O)[C@@H](Cc1ccccc1)CP(=O)(O)O [R, -H, -CONH-, -(CH2)2-, -OH, N-[(R)-1-oxo-3-phenyl-2-)phosphonomethyl)propyl] -(β-alanine calcium salt]	–
1.3 nM	O=C(O)CCNC(=O)C(Cc1ccc(-c2ccccc2)cc1)CP(=O)(O)O (racemic) [R,S, -C6H5, -CONH-, -(CH2)2-, -OH, N-[(R,S)-3-(1,1'-Biphenyl-4-yl)-1-oxo-2-(phosphonomethyl)-propyl]-β-alanine]	–

Molecule	IC50 [1]	Oral ED50, in mice [2]
N-L(S)-1-Oxo-3-phenyl-2-(phosphonomethyl)propyl]-β-alanine calcium salt [S, -H, -CONH-, -(CH2)2-, -OH]	19 nM	3 mg/kg
3-[(S) -2- (Diethoxyphosphinyl) methyl -1-oxo-3 -nhenyl- propyl]amino-2-(R,S)-methylpropanoic acid calcium salt [S, -H, -CONH-, -CH2C^**H(CH3)-, -OH]	25.5 nM	20 mg/kg
